Measured values from PMC6510928, “Characterisation of the Ral GTPase inhibitor RBC8 in human and mouse platelets” (Cellular Signalling, 2019).

Legend:
[1] = molecular target: T1, RalB (Homo sapiens, UniProt P11234); assay: GST-RalBP1 pulldown of RalB-GTP from RBC8-treated, CRP-stimulated human platelets, immunoblot densitometry; assay type: cell-based
T1 sequence (P11234 1-203): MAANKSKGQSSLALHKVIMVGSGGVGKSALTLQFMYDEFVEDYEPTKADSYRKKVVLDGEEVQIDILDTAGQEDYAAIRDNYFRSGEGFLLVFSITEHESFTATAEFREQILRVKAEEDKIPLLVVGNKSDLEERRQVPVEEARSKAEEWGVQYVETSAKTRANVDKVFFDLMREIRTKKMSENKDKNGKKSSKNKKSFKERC

[2] = molecular target: T2, RalA (Homo sapiens, UniProt P11233); assay: GST-RalBP1 pulldown of RalA-GTP from RBC8-treated, CRP-stimulated human platelets, immunoblot densitometry; assay type: cell-based
T2 sequence (P11233 1-203): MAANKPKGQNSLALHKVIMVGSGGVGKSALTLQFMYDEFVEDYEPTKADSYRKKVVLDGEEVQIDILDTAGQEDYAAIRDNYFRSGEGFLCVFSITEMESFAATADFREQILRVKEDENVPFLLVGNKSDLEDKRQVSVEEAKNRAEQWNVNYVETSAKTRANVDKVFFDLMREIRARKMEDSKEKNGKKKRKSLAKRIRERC

IC50 [1]: 2.3 µM
IC50 [2]: 2.2 µM
SMILES: COc1ccc(OC)c(C2C(C#N)=C(N)Oc3n[nH]c(-c4ccc5ccccc5c4)c32)c1 (centres unmarked) [RBC8]
